Test results published in the supplement of paper PMC8671470.
Structures can show the parent of a compound that is named as a salt. ± gives the standard deviation of the averaged measurements.

Experiments:
HL-60 [1] = experiment: cell viability (% survival relative to DMSO control); higher = less cytotoxic; conditions: 72 h
How it was run: (§1)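 HL-60 cells in RPMI 1640 with 10% FBS were rescreened against the full library on 384-well plates at five tenfold concentrations, 1–10,000 nM, in duplicate. Each screen was run with DMSO or 100 nM of one of three metabolic inhibitors, for 72 h at 37 °C, 5% CO2. Viability was read by CellTiter-Glo and normalised to DMSO and 10 μM proteasome-inhibitor wells. Where given, area under the curve came from four-parameter log-logistic fits (drc, PharmacoGx).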

HL-60 [2] = experiment: area under dose-response curve (viability, 1 nM-10 uM) (fraction (0-1)); higher = more sensitive; conditions: 72 h
How it was run: as §1

[3] = 0.001 µM, co-treatment: AZD3965 100 nM
[4] = 0.001 µM, co-treatment: DMSO vehicle
[5] = 0.001 µM, co-treatment: GSK2194069 100 nM
[6] = 0.001 µM, co-treatment: pictilisib 100 nM
[7] = 0.01 µM, co-treatment: AZD3965 100 nM
[8] = 0.01 µM, co-treatment: DMSO vehicle
[9] = 0.01 µM, co-treatment: GSK2194069 100 nM
[10] = 0.01 µM, co-treatment: pictilisib 100 nM
[11] = 0.1 µM, co-treatment: AZD3965 100 nM
[12] = 0.1 µM, co-treatment: DMSO vehicle
[13] = 0.1 µM, co-treatment: GSK2194069 100 nM
[14] = 0.1 µM, co-treatment: pictilisib 100 nM
[15] = 1 µM, co-treatment: AZD3965 100 nM
[16] = 1 µM, co-treatment: DMSO vehicle
[17] = 1 µM, co-treatment: GSK2194069 100 nM
[18] = 1 µM, co-treatment: pictilisib 100 nM
[19] = 10 µM, co-treatment: AZD3965 100 nM
[20] = 10 µM, co-treatment: DMSO vehicle
[21] = 10 µM, co-treatment: GSK2194069 100 nM
[22] = 10 µM, co-treatment: pictilisib 100 nM
[23] = co-treatment: GSK2194069 100 nM
[24] = co-treatment: pictilisib 100 nM

SMILES | cell viability (HL-60 [1]; [3]) [%] | cell viability (HL-60 [1]; [4]) [%] | cell viability (HL-60 [1]; [5]) [%] | cell viability (HL-60 [1]; [6]) [%] | cell viability (HL-60 [1]; [7]) [%] | cell viability (HL-60 [1]; [8]) [%] | cell viability (HL-60 [1]; [9]) [%] | cell viability (HL-60 [1]; [10]) [%] | cell viability (HL-60 [1]; [11]) [%] | cell viability (HL-60 [1]; [12]) [%] | cell viability (HL-60 [1]; [13]) [%] | cell viability (HL-60 [1]; [14]) [%] | cell viability (HL-60 [1]; [15]) [%] | cell viability (HL-60 [1]; [16]) [%] | cell viability (HL-60 [1]; [17]) [%] | cell viability (HL-60 [1]; [18]) [%] | cell viability (HL-60 [1]; [19]) [%] | cell viability (HL-60 [1]; [20]) [%] | cell viability (HL-60 [1]; [21]) [%] | cell viability (HL-60 [1]; [22]) [%] | area under dose-response curve (HL-60 [2]; co-treatment: AZD3965 100 nM) | area under dose-response curve (HL-60 [2]; co-treatment: DMSO vehicle) | area under dose-response curve (HL-60 [2]; [23]) | area under dose-response curve (HL-60 [2]; [24])
O=C(NCCN1CCC(n2c(O)nc3ccccc32)CC1)c1cc2cc(F)ccc2[nH]1 [FIPI] | 104 ± 2.1 | 101.7 ± 0.73 | 98.6 ± 1.2 | 106 ± 9.6 | 99.7 ± 3.9 | 100.3 ± 0.26 | 99.3 ± 1.1 | 105.7 ± 0.28 | 103 ± 14 | 104 ± 2.4 | 102 ± 6.9 | 110 ± 12 | 102 ± 4.5 | 108 ± 4.5 | 106 ± 5.5 | 110 ± 1.8 | 107 ± 3.7 | 107 ± 3 | 91.2 ± 1.8 | 95.5 ± 7.1 | < 0.0301 | < 0.0301 | < 0.0301 | < 0.0301
CCN(CCO)CCCC(C)Nc1ccnc2cc(Cl)ccc12 (stereo unspecified) [Hydroxychloroquine sulfate] | 91.8 ± 6 | 92.3 ± 6.9 | 97 ± 19 | 86.1 ± 14 | 97.2 ± 7.5 | 98.9 ± 4.7 | 101 ± 2.1 | 101 ± 1.4 | 105 ± 4 | 101 ± 6.6 | 111 ± 7.2 | 109 ± 7.7 | 96.7 ± 1.4 | 98.9 ± 6.2 | 99.5 ± 8 | 107 ± 11 | 101 ± 1.3 | 99.8 ± 2.9 | 104 ± 7.1 | 103 ± 9.1 | < 0.0301 | < 0.0301 | < 0.0301 | < 0.0301
O=C([O-])CC(O)(C(=O)[O-])C(O)C(=O)[O-].[K+].[K+].[K+] (stereo unspecified) [Hydroxycitrate] | 87.2 ± 28 | 97.7 ± 6.6 | 101 ± 10 | 93.7 ± 14 | 94.9 ± 3.3 | 97.98 ± 0.11 | 99.09 ± 0.31 | 90.3 ± 14 | 100 ± 2.7 | 103.8 ± 0.85 | 103 ± 3.8 | 108 ± 10 | 106.2 ± 0.079 | 87.7 ± 10 | 95.3 ± 9.5 | 97.3 ± 11 | 97.3 ± 2.8 | 92.4 ± 6.2 | 98.1 ± 6.8 | 94.4 ± 9.3 | < 0.0301 | < 0.0301 | < 0.0301 | < 0.0301
CCCCCN(C)CCC(O)(P(=O)(O)O)P(=O)(O)O [Ibandronate] | 101 ± 4 | 101 ± 3 | 98.3 ± 3.5 | 103 ± 12 | 90.6 ± 11 | 99.4 ± 3.6 | 98.1 ± 3.2 | 87.2 ± 3.4 | 108.2 ± 0.12 | 104 ± 2.7 | 104 ± 2.5 | 101 ± 3.7 | 94.15 ± 0.69 | 99.1 ± 3.3 | 94.4 ± 2.5 | 94.3 ± 2 | 99.33 ± 0.86 | 106 ± 1.4 | 99 ± 1.6 | 99.9 ± 3.8 | < 0.0301 | < 0.0301 | < 0.0301 | < 0.0301
Cc1cc(C(=O)NNCc2ccccc2)no1 [Isocarboxazid] | 103 ± 2.5 | 102 ± 8.1 | 101 ± 4 | 102 ± 2.6 | 103 ± 6.9 | 101 ± 3.7 | 102 ± 6 | 96.8 ± 7.7 | 94.9 ± 20 | 96.3 ± 7.4 | 87 ± 17 | 86.6 ± 22 | 99.03 ± 0.43 | 99.7 ± 2 | 102 ± 1.1 | 103 ± 3.1 | 101 ± 2.6 | 100 ± 1.7 | 98.2 ± 5.2 | 90 ± 3.2 | < 0.0301 | < 0.0301 | < 0.0301 | < 0.0301
CCn1c(=Cc2cccc[n+]2CC)sc(=C2Sc3ccccc3N2C)c1=O [MKT 077] | 95.2 ± 2.8 | 102 ± 4.8 | 92 ± 3 | 95.6 ± 3.1 | 102 ± 3.6 | 105 ± 2.6 | 104 ± 8.8 | 113.3 ± 0.81 | 97.3 ± 6.6 | 97.35 ± 0.5 | 96 ± 2 | 99.2 ± 3.6 | 88.22 ± 0.49 | 100.14 ± 0.022 | 76.1 ± 3.7 | 93.3 ± 3.5 | 97.7 ± 8.2 | 106 ± 3.7 | 73.5 ± 28 | 110 ± 18 | < 0.0301 | < 0.0301 |  | < 0.0301
COC(=O)c1cc2c(C(F)(F)F)cc(-c3ccccc3)cc2n1O [NHI-2] | 101 ± 16 | 102 ± 3.1 | 103 ± 4.8 | 96.9 ± 18 | 90.5 ± 6 | 100 ± 4 | 94.829 ± 0.083 | 92.8 ± 10 | 103 ± 8.9 | 104 ± 1.4 | 100 ± 3.5 | 103 ± 3.6 | 107 ± 4.8 | 102 ± 3.6 | 107.3 ± 0.8 | 99.3 ± 8.1 | 109 ± 7.1 | 111 ± 6 | 98.4 ± 0.75 | 97.3 ± 13 | < 0.0301 | < 0.0301 | < 0.0301 | < 0.0301
CCCCCCCC/C=C\CCCCCCCC(=O)Nc1ccccc1 [Octadec-9-Enoic Acid Phenylamide] | 99.2 ± 1.6 | 94.5 ± 9.6 | 93 ± 1.7 | 98.2 ± 4.6 | 98.61 ± 0.52 | 91.3 ± 13 | 98 ± 9.1 | 99 ± 3.9 | 104 ± 4.4 | 103 ± 5.8 | 103 ± 4.3 | 106 ± 1.2 | 101 ± 1.6 | 101 ± 3.4 | 98.7 ± 4.8 | 108 ± 10 | 90.3 ± 8.5 | 105 ± 3.8 | 91.5 ± 6.8 | 91.3 ± 8.9 | < 0.0301 | < 0.0301 | < 0.0301 | < 0.0301
